Results: the supplement of paper PMC4862054

Legend:
Details in all cases: 72 h
Hs578T [1] = system: Hs578T
Experimental: (§1)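 Drug sensitivity and resistance testing (DSRT) of breast cancer cell lines in 384-well plates, 5 concentrations in 10-fold dilutions over a compound-specific 10,000-fold range. After 72 h, cytotoxicity was read by CellTox Green fluorescence and viability by CellTiter-Glo luminescence (multiplexed), normalised to DMSO and benzethonium chloride controls. EC50 is the inflection point of the fitted dose-response curve (bottom asymptote free, so it can be relative for partial curves) and is censored at the highest tested concentration. Rows with DSS 0 (no meaningful response) were excluded.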

CAL-51 [2] = system: CAL-51
Experimental: as §1

BT-549 [3] = system: BT-549
Experimental: as §1

BT-474 [4] = system: BT-474
Experimental: as §1

MDA-MB-231 [5] = system: MDA-MB-231
Experimental: as §1

MCF-10A [6] = system: MCF-10A
Experimental: as §1

Hs578T [7] = system: Hs578T; remark: listed apart in the source
Outline: (§2)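 Per-plate normalisation used 0.1 % DMSO and a positive kill control. Breast cancer cell lines (20 µl suspension) were seeded into 384-well plates containing compound at 5 concentrations in 10-fold steps across a compound-specific 10,000-fold range, incubated for 72 h, and read first for CellTox Green fluorescence (485/520 nm), then for CellTiter-Glo luminescence. EC50 was fitted from the dose-response curves and censored at the top concentration.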

HDQ-P1 [8] = system: HDQ-P1
Outline: as §2

HCC1143 [9] = system: HCC1143
Outline: as §2

CAL-51 [10] = system: CAL-51; remark: listed apart in the source
Outline: as §2

MFM-223 [11] = system: MFM-223
Outline: as §2

HCC1937 [12] = system: HCC1937
Outline: as §2

BT-549 [13] = system: BT-549; remark: listed apart in the source
Outline: as §2

BT-474 [14] = system: BT-474; remark: listed apart in the source
Outline: as §2

CAL-120 [15] = system: CAL-120
Outline: as §2

MDA-MB-231 [16] = system: MDA-MB-231; remark: listed apart in the source
Outline: as §2

MCF-10A [17] = system: MCF-10A; remark: listed apart in the source
Outline: as §2

MDA-MB-436 [18] = system: MDA-MB-436
Experimental: as §1

MDA-MB-468 = system: MDA-MB-468
Experimental: as §1

CAL-85-1 [19] = system: CAL-85-1
Experimental: as §1

MDA-MB-436 [20] = system: MDA-MB-436; remark: listed apart in the source
Outline: as §2

CAL-85-1 [21] = system: CAL-85-1; remark: listed apart in the source
Outline: as §2

DU-4475 [22] = system: DU-4475
Outline: as §2

SK-BR-3 = system: SK-BR-3
Outline: as §2

HDQ-P1 [23] = system: HDQ-P1; remark: listed apart in the source
Experimental: as §1

HCC1599 [24] = system: HCC1599
Experimental: as §1

HCC1143 [25] = system: HCC1143; remark: listed apart in the source
Experimental: as §1

CAL-148 [26] = system: CAL-148
Experimental: as §1

MFM-223 [27] = system: MFM-223; remark: listed apart in the source
Experimental: as §1

HCC1937 [28] = system: HCC1937; remark: listed apart in the source
Experimental: as §1

DU-4475 [29] = system: DU-4475; remark: listed apart in the source
Experimental: as §1

CAL-120 [30] = system: CAL-120; remark: listed apart in the source
Experimental: as §1

MDA-MB-453 [31] = system: MDA-MB-453
Experimental: as §1

HCC1599 [32] = system: HCC1599; remark: listed apart in the source
Outline: (§3)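 For viability, cells received 2.5 µl CellTiter-Blue for 2 h at 37 °C and fluorescence was read at 560/590 nm. Before this, breast cancer cell lines in 20 µl suspension had been incubated for 72 h on 384-well plates pre-loaded with compound dissolved in 5 µl medium. EC50 was obtained from a percent-inhibition dose-response fit censored at the highest concentration, after normalisation of each plate to vehicle and a positive kill control; rows with a zero drug sensitivity score were discarded.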

HCC1143 [33] = system: HCC1143; remark: listed apart in the source
Outline: as §3

HCC1599 [34] = system: HCC1599; remark: listed apart in the source
Outline: as §2

CAL-148 [35] = system: CAL-148; remark: listed apart in the source
Outline: as §2

MDA-MB-453 [36] = system: MDA-MB-453; remark: listed apart in the source
Outline: as §2

CAL-148 [37] = system: CAL-148; remark: listed apart in the source
Outline: as §3

Structure (SMILES) | EC50, CellTox Green (Hs578T [1]) [nM] | EC50, CellTox Green (CAL-51 [2]) [nM] | EC50, CellTox Green (BT-549 [3]) [nM] | EC50, CellTox Green (BT-474 [4]) [nM] | EC50, CellTox Green (MDA-MB-231 [5]) [nM] | EC50, CellTox Green (MCF-10A [6]) [nM] | EC50, CellTiter-Glo (Hs578T [7]) [nM] | EC50, CellTiter-Glo (HDQ-P1 [8]) [nM] | EC50, CellTiter-Glo (HCC1143 [9]) [nM] | EC50, CellTiter-Glo (CAL-51 [10]) [nM] | EC50, CellTiter-Glo (MFM-223 [11]) [nM] | EC50, CellTiter-Glo (HCC1937 [12]) [nM] | EC50, CellTiter-Glo (BT-549 [13]) [nM] | EC50, CellTiter-Glo (BT-474 [14]) [nM] | EC50, CellTiter-Glo (CAL-120 [15]) [nM] | EC50, CellTiter-Glo (MDA-MB-231 [16]) [nM] | EC50, CellTiter-Glo (MCF-10A [17]) [µM] | EC50, CellTox Green (MDA-MB-436 [18]) [nM] | EC50, CellTox Green (MDA-MB-468) [µM] | EC50, CellTox Green (CAL-85-1 [19]) [nM] | EC50, CellTiter-Glo (MDA-MB-436 [20]) [nM] | EC50, CellTiter-Glo (CAL-85-1 [21]) [nM] | EC50, CellTiter-Glo (DU-4475 [22]) [nM] | EC50, CellTiter-Glo (SK-BR-3) [nM] | EC50, CellTox Green (HDQ-P1 [23]) [nM] | EC50, CellTox Green (HCC1599 [24]) [µM] | EC50, CellTox Green (HCC1143 [25]) [µM] | EC50, CellTox Green (CAL-148 [26]) [nM] | EC50, CellTox Green (MFM-223 [27]) [nM] | EC50, CellTox Green (HCC1937 [28]) [µM] | EC50, CellTox Green (DU-4475 [29]) [nM] | EC50, CellTox Green (CAL-120 [30]) [nM] | EC50, CellTox Green (MDA-MB-453 [31]) [µM] | EC50, CellTiter-Blue viability (HCC1599 [32]) [nM] | EC50, CellTiter-Blue viability (HCC1143 [33]) [nM] | EC50, CellTiter-Glo (HCC1599 [34]) [µM] | EC50, CellTiter-Glo (CAL-148 [35]) [nM] | EC50, CellTiter-Glo (MDA-MB-453 [36]) [nM] | EC50, CellTiter-Blue viability (CAL-148 [37]) [nM]
Nc1cc(C(F)(F)F)c(-c2cc(N3CCOCC3)nc(N3CCOCC3)n2)cn1 [Buparlisib] | 5580 | 2900 | 7700 | 5170 | 3580 | 8430 | 2330 | 1000 | > 10000 | 2400 | 225 | 6150 | 2360 | 5150 | 8230 | 9280 | 0.513 | – | – | – | – | – | – | – | – | – | – | – | – | – | – | – | – | – | – | – | – | – | –
Cc1cc(Nc2cc(CN3CCOCC3)c3nc(C)c(Cc4ccc(Cl)cc4F)n3n2)n[nH]1 [Gandotinib] | 2040 | 1390 | – | – | – | – | 2660 | 1930 | 1620 | 775 | 420 | 2530 | 2510 | 1110 | 5010 | 1300 | 3.14 | 241 | 4.5 | 6590 | 1510 | 955 | 7860 | 4030 | – | – | – | – | – | – | – | – | – | – | – | – | – | – | –
COCC[n+]1c2c(n(Cc3cnccn3)c1C)C(=O)c1ccccc1C2=O [YM155] | 2600 | 30.2 | 272 | 17.9 | 14.4 | 12.8 | 212 | 17.3 | 11.4 | 16.6 | 27.2 | 11.2 | 65.5 | 4.16 | 3.32 | 8.02 | 0.0272 | 24.2 | 0.00924 | 5.8 | 3.9 | 5.5 | 57.8 | 16.8 | 33 | 0.0585 | 0.00159 | 34.2 | 836 | 0.0248 | 418 | 6.34 | 0.347 | 12 | 26.2 | 0.00729 | 19.9 | 25.2 | 11.6
CC(C)C[C@@H](C(=O)N[C@H](C(=O)OC1CCCC1)c1ccccc1)[C@H](O)C(=O)NO [Tosedostat] | > 10000 | 35.5 | 1390 | 1560 | 52.9 | – | 8270 | 630 | 405 | 854 | 528 | 81.3 | 125 | 93.2 | 127 | 366 | – | 9.14 | 0.151 | 140 | 335 | 182 | – | – | 851 | – | 7.2 | – | – | – | – | 163 | – | – | 189 | – | 327 | 55.8 | 2750
COc1cc(OC2CCN(C)CC2)ccc1Nc1ncc2c(n1)n(C1CCCC1)c(=O)n2C [AZ 3146] | – | 768 | – | – | – | – | – | – | – | 1010 | – | – | – | 2620 | – | – | 9.26 | > 10000 | – | – | – | 3780 | – | 970 | – | > 10 | – | – | – | – | – | – | – | – | – | 8.24 | – | – | 1990
O=C(/C=C/c1cccc(S(=O)(=O)Nc2ccccc2)c1)NO [Belinostat] | 1260 | 680 | – | 1600 | 261 | 30.4 | 989 | 2830 | 803 | 29.2 | 264 | 2180 | 1010 | 458 | 634 | 564 | 1.15 | – | 3.69 | 1010 | 1250 | 738 | 358 | 229 | – | – | – | 1070 | 745 | – | 519 | 1410 | > 10 | 348 | 971 | 0.826 | 370 | 158 | 322
COc1cc2c(NC3CCN(C(C)C)CC3)nc(N3CCC(F)(F)CC3)nc2cc1OCCCN1CCCC1 [UNC0642] | – | – | – | 2680 | 2090 | 4920 | – | 9830 | – | – | 5790 | > 10000 | – | 7620 | – | 4720 | 6.61 | 20.9 | 3.39 | 2490 | 4100 | 2990 | – | 6170 | – | – | – | 8400 | – | 7.07 | – | – | 7.17 | – | – | – | 5460 | 3150 | –
CCc1c2c(nc3ccc(OC(=O)N4CCC(N5CCCCC5)CC4)cc13)-c1cc3c(c(=O)n1C2)COC(=O)[C@]3(O)CC [Irinotecan] | > 10000 | 1220 | – | – | – | – | – | – | – | 3290 | – | – | 9390 | 2550 | 2590 | – | 4.29 | – | – | – | 1160 | – | 1840 | 1180 | – | – | – | 304 | – | – | – | 5530 | – | 692 | 2350 | 6.85 | 1450 | – | 1170
CO[C@H]1C[C@@H]2CC[C@@H](C)[C@@](O)(O2)C(=O)C(=O)N2CCCC[C@H]2C(=O)O[C@H]([C@H](C)C[C@@H]2CC[C@@H](OP(C)(C)=O)[C@H](OC)C2)CC(=O)[C@H](C)/C=C(\C)[C@@H](O)[C@@H](OC)C(=O)[C@H](C)C[C@H](C)/C=C/C=C/C=C/1C [Ridaforolimus] | – | – | – | – | – | – | 0.42 | 6.62 | 0.91 | 1.61 | 0.98 | 0.46 | 0.44 | – | 0.9 | – | – | 64.5 | – | – | 1.03 | 0.57 | 2.24 | 0.78 | 0.35 | – | – | – | – | – | – | – | – | – | 1 | – | 2.27 | 1.22 | 0.64
Cc1ccc(NC(=O)c2ccc(CN3CCN(C)CC3)cc2)cc1Nc1nc(-c2cccnc2)cs1 [Masitinib] | – | – | – | – | 3220 | – | – | 4910 | – | 5460 | > 10000 | > 10000 | 1880 | 7580 | – | > 10000 | – | – | 7.16 | – | – | – | – | 7390 | – | 8.82 | – | – | – | – | – | – | – | – | – | 9.36 | – | 1620 | –
NC(=O)c1ccc(I)c([N+](=O)[O-])c1 [Iniparib] | – | – | – | – | – | – | – | – | – | – | – | – | – | – | – | – | – | – | – | – | 540 | – | – | – | – | – | – | – | – | – | – | > 10000 | – | – | – | – | – | – | –
